Reference: patent US6841546B2, “Substituted tetracycline compounds as antifungal agents” (Paratek Pharmaceuticals, Inc., priority 2001, dated 2005)

Assay: Mammalian Cytotoxicity Assay (Resazurin)
Type: cell-based
Details: African green monkey (COS-1) and Chinese hamster (CHO)
Description: COS-1 and CHO cell suspensions are prepared, seeded into 96-well tissue culture treated black-walled microtiter plates (density determined by cell line), and incubated overnight at 37° C., in 5% CO2 and approximately 95% humidity. The following day serial dilutions of drug are prepared under sterile conditions and transferred to cell plates. Cell/Drug plates are incubated under the above conditions for 24 hours. Following the incubation period, media/drug is aspirated and 50 μl of Resazurin is added. Plates are then incubated under the above conditions for 2 hours and then in the dark at room temperature for an additional 30 minutes. Fluorescence measurements are taken (excitation 535 nm, emission 590 nm). The IC50 (concentration of drug causing 50% growth inhibition) is then calculated.

For `C[C@H]1c2cccc(O)c2C(=O)C2=C(O)[C@]3(O)C(=O)C(C(N)=O)=C(O)[C@@H](N(C)C)[C@@H]3[C@@H](O)[C@@H]21` [doxycycline], the IC50 at 24 h was over 25 µg/mL.

`CN(C)c1ccc(O)c2c1C[C@H]1C[C@H]3[C@H](N(C)C)C(O)=C(C(N)=O)C(=O)[C@@]3(O)C(O)=C1C2=O` [minocycline] gave an IC50 at 24 h of over 25 µg/mL.
